The test system of this data set is Chemostat Inoculum (bacteria cocktail with A. viscosus, S. oralis, V. parvula, L. casei, and F. nucleatum). Put plainly: Resazurin anti-bacterial test (bacterial viability microassay). Format: cell-based. The conditions noted are these: 1 hr incubation with test solution 1:1 in 1/4 strength trypticase soy broth, average of runs over 4-5 days, concentration as in toothpaste formula. On the procedure: The core shell silica (CSS) particles of the invention were testing for anti-bacterial activity using the resazurin anti-bacterial test assay wherein the reduction of resazurin is a measure of reduction of bacterial growth.
All solutions are measured for the bacterial viability using resazurin microassay with Chemostat Inoculum (bacteria cocktail with A. viscosus, S. oralis, V. parvula, L. casei, and F. nucleatum) used in oral care product evaluation. Resazurin (7-Hydroxy-3H-phenoxazin-3-one 10-oxide) is a blue dye used as oxidation—reduction reaction, quantifies bacterial viability from color perception with respiring reaction effect.
Each experiment is conducted with live and dead bacterial cocktail with A. viscosus, S. oralis, V. parvula, L. casei, and F. nucleatum using TSB broth (trypticase soy broth) and ethanol respectively and they were added at proper ratio to generate standard curve from 100% live bacterial cocktail to 100% dead bacterial cocktail collecting at a total of 12 points.
The assay is performed using bacteria pellet from 1 ml Chemostat Inoculum and exposed with 1/4 strength trypticase soy broth: test solution at 1:1 ratio in Eppendorf tube. After 1 hr incubation further bacteria growth was deactivated adding 1 ml D/E Broth with proper mixing and collected pellet was rinsed with 1 ml TSB broth to remove D/E broth completely (D/E=Dey-Engley). […]

Take `[Cl-].[Cl-].[Zn+2]` [Positive control (1% ZnCl2 + water), zinc chloride]: the “% of viable bacteria” value is listed as 4.88%.

These data come from patent US12324848B2, “Core shell silica particles and uses thereof as an anti-bacterial agent” (Colgate-Palmolive Company, priority 2013, dated 2025).
